Consider 13 compounds from ChEMBL document CHEMBL1201862, “PubChem BioAssay data set” (2004).

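Values below derive from 48-hour exposures of cells grown in 96-well plates, with endpoints linearly interpolated between the two concentrations bracketing the appropriate inhibition level. Here, GI50 denotes the concentration required for 50% inhibition of growth.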 Activity calls are given as the source filed them. No stated cut-off is given here; in the data, active = GI50 up to about 1.1 µM and inactive = higher.

The GI50 is the concentration giving 50% growth inhibition.

Test systems include 786-0; ACHN; CCRF-CEM; HL-60; K562; NCI-H460; NCI-H522; SF-268; SK-MEL-28; SK-MEL-2; SK-OV-3; SN12C; TK-10; HT-29; SNB-75; NCI-H226; SR; T47D; MDA-MB-435.
Holding throughout (assay): DTP human tumour cell line panel, 48 h

`C=CCn1c(=O)n(CC=C)c(=O)n(CC=C)c1=O`: the GI50 in the assay with 786-0, in the assay with ACHN, in the assay on CCRF-CEM, in the assay with HL-60, in the assay on K562 and in the assay with NCI-H460 was > 100 µM (inactive) throughout. Besides, the GI50 in the assay on NCI-H522, in the assay with SF-268, with SK-MEL-28, with SK-MEL-2, in the assay with SK-OV-3 and in the assay with SN12C was > 100 µM (inactive) in each case. Besides, the GI50 in the assay on TK-10 was > 100 µM (inactive).
With `COc1cc2c(cc1OC)C1Cc3ccc(OC)c(OC)c3C[N+]1([O-])CC2` (configuration not stated), the GI50 in the assay on 786-0, in the assay on ACHN, in the assay with CCRF-CEM, in the assay with HT-29, in the assay on K562 and in the assay with NCI-H460 was > 100 µM (inactive) each time. Besides, the GI50 in the assay on NCI-H522, with SF-268, in the assay on SK-MEL-28, with SK-MEL-2, in the assay on SN12C and in the assay with SNB-75 was > 100 µM (inactive) throughout. Besides, the GI50 with TK-10 was > 100 µM (inactive).
Take `CC(C)N(C(=O)C12C3C4C5(C(=O)O)C(C1C35I)C42C(=O)O)C(C)C` (configuration not stated): the GI50 in the assay on 786-0, with ACHN, in the assay on CCRF-CEM, in the assay with HL-60, with HT-29 and in the assay on K562 was > 100 µM (inactive) throughout. The GI50 in the assay on NCI-H226, in the assay with NCI-H460, in the assay with NCI-H522, in the assay on SF-268, with SK-MEL-28 and with SK-OV-3 was > 100 µM (inactive) in each case. Besides, the GI50 in the assay with SN12C was > 100 µM (inactive); in the assay with SNB-75 it was 29.1 µM (inactive); in the assay on SR, > 100 µM (inactive); in the assay on TK-10, > 100 µM (inactive).
In the case of `COc1ccc2c(c1)[n+]([O-])c(/C(C)=N/NC(=O)CC#N)c[n+]2[O-]`, the GI50 in the assay with 786-0 is > 100 µM (inactive); with ACHN, > 100 µM (inactive); with CCRF-CEM it was > 100 µM (inactive); in the assay with HL-60 it was 21.1 µM (inactive); with HT-29, > 100 µM (inactive); with K562 it was > 100 µM (inactive). The GI50 with NCI-H226, in the assay on NCI-H460, with NCI-H522, in the assay on SF-268, in the assay with SK-MEL-28 and in the assay with SK-MEL-2 was > 100 µM (inactive) each time. Besides, the GI50 with SK-OV-3, in the assay with SN12C, in the assay with SNB-75, in the assay on SR and with TK-10 was > 100 µM (inactive) throughout.
In the case of `COC(=O)c1nn(C(=N)c2ccc(Cl)cc2)c2c1CCCCC2`, the GI50 in the assay with 786-0, in the assay with ACHN, with CCRF-CEM, in the assay with HL-60, in the assay on HT-29 and with K562 was > 100 µM (inactive) each time. Moreover, the GI50 in the assay with NCI-H226, in the assay on NCI-H460, in the assay on NCI-H522, in the assay on SF-268, with SK-MEL-28 and with SK-MEL-2 was > 100 µM (inactive) throughout. Besides, the GI50 in the assay with SK-OV-3, in the assay with SN12C, in the assay on SNB-75, in the assay on SR and in the assay on TK-10 was > 100 µM (inactive) in each case.
As to `CCOP(=S)(OCC)Oc1ccc2c(c1)OC(=O)C1(Cl)C2(C)C2(Cl)C(=O)Oc3cc(OP(=S)(OCC)OCC)ccc3C12C` (configuration not stated), the GI50 was 21.1 µM (inactive) with 786-0; 22.4 µM (inactive) with ACHN; 16.9 µM (inactive) with CCRF-CEM; 14.7 µM (inactive) with HL-60; 15.5 µM (inactive) in the assay with HT-29; 27.3 µM (inactive) in the assay with K562. For the same compound, the GI50 with NCI-H226 was 15.1 µM (inactive); in the assay on NCI-H460 it was 17.5 µM (inactive); with NCI-H522, 10.4 µM (inactive); with SF-268 it was 6.08 µM (inactive); with SK-MEL-28 it was 16.5 µM (inactive); in the assay on SK-MEL-2 it was 20.4 µM (inactive). Also, the GI50 was 19.2 µM (inactive) with SN12C, 16.1 µM (inactive) with SNB-75 and 25.5 µM (inactive) with TK-10.
For the compound `COC1=NCc2ccccc2-c2ccccc21`, the GI50 with 786-0, with ACHN, in the assay with CCRF-CEM, in the assay on HL-60, with HT-29 and in the assay with K562 was > 100 µM (inactive) throughout. For the same compound, the GI50 in the assay with NCI-H226, with NCI-H460, with NCI-H522, in the assay with SF-268, with SK-MEL-28 and in the assay with SK-MEL-2 was > 100 µM (inactive) in each case. Also, the GI50 with SK-OV-3, with SN12C, with SNB-75 and in the assay with TK-10 was > 100 µM (inactive) in each case.
In the case of `CO/C(=N\N=C\c1cc(OC)ccc1OC)c1ccncc1`, the GI50 in the assay with 786-0, with ACHN, in the assay with CCRF-CEM, with HL-60, in the assay with K562 and in the assay on NCI-H226 was > 10 µM (inactive) throughout. Moreover, the GI50 with NCI-H460, in the assay on SF-268, with SK-MEL-28, with SK-MEL-2, in the assay with SK-OV-3 and with SN12C was > 10 µM (inactive) in each case. Also, the GI50 is 3.68 µM (inactive) in the assay with SNB-75, > 10 µM (inactive) with SR, > 10 µM (inactive) in the assay with T47D and > 10 µM (inactive) in the assay with TK-10.
Turning to `COC(=O)C1=C(c2cc(OC)c(OC)c(OC)c2)OC(c2ccc(OC)c(OC)c2)C1` (configuration not stated), the GI50 in the assay with 786-0 was 73.3 µM (inactive); with ACHN it was 51.2 µM (inactive); in the assay with CCRF-CEM it was 60.1 µM (inactive); with HL-60, 27.4 µM (inactive); in the assay with HT-29, 38.7 µM (inactive); in the assay with K562 it was 45.1 µM (inactive). The GI50 is 96.6 µM (inactive) with NCI-H226; 39.5 µM (inactive) in the assay with NCI-H460; 55.8 µM (inactive) with SF-268; 79.8 µM (inactive) with SK-MEL-28; 61.2 µM (inactive) with SK-MEL-2; 40.5 µM (inactive) with SK-OV-3. Besides, the GI50 was 51.6 µM (inactive) in the assay with SN12C, 66.1 µM (inactive) with SNB-75, 51.6 µM (inactive) in the assay with SR and 54.3 µM (inactive) with TK-10.
As for `CN(C)C(=S)/N=c1\ss/c(=N\S(=O)(=O)c2ccccc2)n1N(C)C`, the GI50 with 786-0 is 45 µM (inactive); in the assay on ACHN it was > 100 µM (inactive); in the assay on CCRF-CEM, 37.9 µM (inactive); with HL-60, > 100 µM (inactive); in the assay with K562 it was 59.8 µM (inactive); in the assay with NCI-H226, > 100 µM (inactive). Besides, the GI50 in the assay with NCI-H460 is > 100 µM (inactive); in the assay with NCI-H522, 4.92 µM (inactive); in the assay with SF-268, 69.8 µM (inactive); with SK-MEL-28 it was > 100 µM (inactive); with SK-MEL-2, > 100 µM (inactive); in the assay with SK-OV-3, > 100 µM (inactive). Moreover, the GI50 was > 100 µM (inactive) in the assay with SN12C, > 100 µM (inactive) in the assay with SNB-75, 41.2 µM (inactive) in the assay with SR and > 100 µM (inactive) in the assay on TK-10.
Consider `Oc1ccc2ccccc2c1/N=N/c1ccsc1`, for which the GI50 in the assay on 786-0 is > 100 µM (inactive); with ACHN it was > 100 µM (inactive); in the assay on CCRF-CEM it was 83.8 µM (inactive); in the assay with HL-60, 73.8 µM (inactive); in the assay with HT-29, 66.8 µM (inactive); in the assay with K562 it was > 100 µM (inactive). The GI50 in the assay with NCI-H226, in the assay with NCI-H460, in the assay on NCI-H522, in the assay on SF-268, with SK-MEL-28 and with SK-MEL-2 was > 100 µM (inactive) each time. The GI50 in the assay on SK-OV-3, with SN12C, in the assay with SNB-75, in the assay on SR and in the assay on TK-10 was > 100 µM (inactive) throughout.
`O=C(n1c2ccccc2c2nnc(S)nc21)C(F)(F)F`: the GI50 with 786-0, in the assay with CCRF-CEM, in the assay on HT-29, with K562, in the assay with NCI-H226 and with NCI-H460 was > 100 µM (inactive) throughout. Besides, the GI50 in the assay on NCI-H522 is > 100 µM (inactive); with SF-268, > 100 µM (inactive); with SK-MEL-28, 60.5 µM (inactive); in the assay with SK-MEL-2, > 10 µM (inactive); in the assay on SK-OV-3 it was > 100 µM (inactive); in the assay with SN12C it was > 100 µM (inactive). Further, the GI50 in the assay with SNB-75 is > 100 µM (inactive); in the assay with TK-10, 0.962 µM (active).
In the case of `COc1cc(-c2oc3c(OC)c(O)c(OC)c(O)c3c(=O)c2OC)cc(O)c1OC`, the GI50 in the assay on 786-0 is 44.4 µM (inactive); in the assay with ACHN it was 50.6 µM (inactive); in the assay on CCRF-CEM, 28.9 µM (inactive); in the assay on HL-60, 24.8 µM (inactive); in the assay with HT-29 it was 30.8 µM (inactive); with K562, 26.5 µM (inactive). The GI50 in the assay on MDA-MB-435 was 19.6 µM (inactive); in the assay on NCI-H226, > 100 µM (inactive); in the assay with NCI-H522, 24.3 µM (inactive); in the assay with SK-MEL-28 it was 47.5 µM (inactive); in the assay with SK-MEL-2 it was 55.1 µM (inactive); in the assay on SK-OV-3, 16.4 µM (inactive). Moreover, the GI50 in the assay on SN12C was 34.4 µM (inactive); in the assay with SNB-75 it was 11 µM (inactive); in the assay with T47D it was 32.8 µM (inactive); in the assay with TK-10, 39.2 µM (inactive).
